Measurements from PMC5218480 (PLoS ONE, 2017).

Tested on: MV-4-11 cells
Experiment: Gene expression microarray analysis (Affymetrix PrimeView) and GSEA
Type: cell-based, human
Design: RFU PODN (11730768_x_at) / Fold change /veh PODN (11730768_x_at) / RFU LINC00158 (11744669_a_at) / Fold change /veh LINC00158 (11744669_a_at) / RFU DUSP10 (11751237_a_at) / Fold change /veh DUSP10 (11751237_a_at) / RFU ID3 (11757404_x_at) / Fold change /veh ID3 (11757404_x_at) / RFU PLEKHG5 (11737974_s_at) / Fold change /veh PLEKHG5 (11737974_s_at) / RFU LRRC4B (11730491_at) / Fold change /veh LRRC4B (11730491_at) / RFU GIMAP4 (11747438_a_at) / Fold change /veh GIMAP4 (11747438_a_at) / RFU KRT8 (11758183_x_at) / Fold change /veh KRT8 (11758183_x_at) / RFU CNN1 (11734310_a_at) / Fold change /veh CNN1 (11734310_a_at) / RFU VPS37D (11726825_at) / Fold change /veh VPS37D (11726825_at) / RFU C10orf10 (11716522_x_at) / Fold change /veh C10orf10 (11716522_x_at) / RFU KIR2DL2 /// KIR2DL4 /// KIR2DL5A /// KIR2DL5B /// KIR2DS1 /// KIR2DS2 /// KIR2DS3 /// KIR2DS4 /// KIR3DL3 /// KIR3DL3 /// KIR3DS1 (11738374_at) / Fold change /veh KIR2DL2 /// KIR2DL4 /// KIR2DL5A /// KIR2DL5B /// KIR2DS1 /// KIR2DS2 /// KIR2DS3 /// KIR2DS4 /// KIR3DL3 /// KIR3DL3 /// KIR3DS1 (11738374_at) / RFU C1QL1 (11718748_at) / Fold change /veh C1QL1 (11718748_at) / RFU TMPRSS4 (11747572_a_at) / Fold change /veh TMPRSS4 (11747572_a_at) / RFU HAMP (11756126_x_at) / Fold change /veh HAMP (11756126_x_at) / RFU RNFT2 (11725882_a_at) / Fold change /veh RNFT2 (11725882_a_at) / RFU NR4A2 (11747474_a_at) / Fold change /veh NR4A2 (11747474_a_at) / RFU ABCC12 (11746883_a_at) / Fold change /veh ABCC12 (11746883_a_at) / RFU TMEM136 (11760407_x_at) / Fold change /veh TMEM136 (11760407_x_at) / RFU CLDN22 /// WWC2 (11732394_at) / Fold change /veh CLDN22 /// WWC2 (11732394_at) / RFU HLA-DPB1 (11760878_x_at) / Fold change /veh HLA-DPB1 (11760878_x_at) / RFU SPINT1 (11716480_a_at) / Fold change /veh SPINT1 (11716480_a_at) / RFU GAP43 (11754022_s_at) / Fold change /veh GAP43 (11754022_s_at) / RFU A4GNT (11735810_at) / Fold change /veh A4GNT (11735810_at) / RFU PRB3 (11715151_x_at) / Fold change /veh PRB3 (11715151_x_at) / RFU TUBB4B (11761932_at) / Fold change /veh TUBB4B (11761932_at) / RFU CAPN14 (11732068_a_at) / Fold change /veh CAPN14 (11732068_a_at) / RFU TMCC2 (11721928_a_at) / Fold change /veh TMCC2 (11721928_a_at) / RFU IRGQ (11745062_a_at) / Fold change /veh IRGQ (11745062_a_at) / RFU FAM174B (11720279_a_at) / Fold change /veh FAM174B (11720279_a_at) / RFU TMPRSS4 (11748680_a_at) / Fold change /veh TMPRSS4 (11748680_a_at) / RFU FAM212B (11763350_a_at) / Fold change /veh FAM212B (11763350_a_at) / RFU PLEKHG5 (11743358_a_at) / Fold change /veh PLEKHG5 (11743358_a_at) / RFU ZSCAN30 (11745921_a_at) / Fold change /veh ZSCAN30 (11745921_a_at) / RFU CMKLR1 (11741424_a_at) / Fold change /veh CMKLR1 (11741424_a_at) / RFU LOC101060620 /// MAPK8IP1 (11723275_at) / Fold change /veh LOC101060620 /// MAPK8IP1 (11723275_at) / RFU SPTSSB (11747773_x_at) / Fold change /veh SPTSSB (11747773_x_at) / RFU PRSS12 (11739890_at) / Fold change /veh PRSS12 (11739890_at) / RFU BIN1 (11741810_x_at) / Fold change /veh BIN1 (11741810_x_at) / RFU WNT11 (11732464_a_at) / Fold change /veh WNT11 (11732464_a_at) / RFU C10orf10 (11716521_a_at) / Fold change /veh C10orf10 (11716521_a_at) / RFU C5orf56 (11738089_at) / Fold change /veh C5orf56 (11738089_at) / RFU CYB561 (11721691_x_at) / Fold change /veh CYB561 (11721691_x_at) / RFU ANKRD19P (11752326_a_at) / Fold change /veh ANKRD19P (11752326_a_at) / RFU OR2T12 /// OR2T33 /// OR2T8 (11738714_s_at) / Fold change /veh OR2T12 /// OR2T33 /// OR2T8 (11738714_s_at) / RFU VCAN (11748164_a_at) / Fold change /veh VCAN (11748164_a_at) / RFU JSRP1 (11732532_at) / Fold change /veh JSRP1 (11732532_at) / RFU KRTAP10-11 (11738290_x_at) / Fold change /veh KRTAP10-11 (11738290_x_at) / RFU MYO3A (11730013_a_at) / Fold change /veh MYO3A (11730013_a_at) / RFU EBF3 (11725865_a_at) / Fold change /veh EBF3 (11725865_a_at) / RFU CAMK2N1 (11719241_x_at) / Fold change /veh CAMK2N1 (11719241_x_at) / RFU C5orf56 (11738088_a_at) / Fold change /veh C5orf56 (11738088_a_at) / RFU OLFML3 (11715873_a_at) / Fold change /veh OLFML3 (11715873_a_at) / RFU LOC100653217 /// NTM (11731650_a_at) / Fold change /veh LOC100653217 /// NTM (11731650_a_at) / RFU MAPK11 (11762145_a_at) / Fold change /veh MAPK11 (11762145_a_at) / RFU FIZ1 (11724087_x_at) / Fold change /veh FIZ1 (11724087_x_at) / RFU OASL (11726364_x_at) / Fold change /veh OASL (11726364_x_at) / RFU SOX15 (11748057_x_at) / Fold change /veh SOX15 (11748057_x_at) / RFU CD79A (11719716_a_at) / Fold change /veh CD79A (11719716_a_at) / RFU HIST1H1D (11736915_at) / Fold change /veh HIST1H1D (11736915_at) / RFU CASKIN2 (11723855_a_at) / Fold change /veh CASKIN2 (11723855_a_at) / RFU LOC730098 (11760151_x_at) / Fold change /veh LOC730098 (11760151_x_at) / RFU OR4N2 (11742367_at) / Fold change /veh OR4N2 (11742367_at) / RFU PRRT2 (11749266_a_at) / Fold change /veh PRRT2 (11749266_a_at) / RFU SNX32 (11753110_a_at) / Fold change /veh SNX32 (11753110_a_at) / RFU CDHR5 (11726645_a_at) / Fold change /veh CDHR5 (11726645_a_at) / RFU RCAN1 (11760418_a_at) / Fold change /veh RCAN1 (11760418_a_at) / RFU FAM167A (11723789_a_at) / Fold change /veh FAM167A (11723789_a_at) / RFU FAM26E (11764081_at) / Fold change /veh FAM26E (11764081_at) / RFU ISYNA1 (11749810_s_at) / Fold change /veh ISYNA1 (11749810_s_at) / RFU ACY1 (11761880_at) / Fold change /veh ACY1 (11761880_at) / RFU 11764098_at / Fold change /veh 11764098_at / RFU SAMD14 (11745864_x_at) / Fold change /veh SAMD14 (11745864_x_at) / RFU NPB (11741838_a_at) / Fold change /veh NPB (11741838_a_at) / RFU TMPRSS6 (11731388_a_at) / Fold change /veh TMPRSS6 (11731388_a_at) / RFU KRTAP10-2 (11738614_at) / Fold change /veh KRTAP10-2 (11738614_at) / RFU ARHGAP8 /// PRR5-ARHGAP8 (11727945_x_at) / Fold change /veh ARHGAP8 /// PRR5-ARHGAP8 (11727945_x_at) / RFU KRTAP5-7 /// NADSYN1 (11734609_at) / Fold change /veh KRTAP5-7 /// NADSYN1 (11734609_at) / RFU RASL12 (11751679_a_at) / Fold change /veh RASL12 (11751679_a_at) / RFU CDKN2B (11736163_a_at) / Fold change /veh CDKN2B (11736163_a_at) / RFU PRF1 (11729649_at) / Fold change /veh PRF1 (11729649_at) / RFU, ZNF638 /// ZNF638-IT1 / Fold change vs veh, ZNF638 /// ZNF638-IT1 / RFU, PANK3 / Fold change vs veh, PANK3 / RFU, SH3YL1 / Fold change vs veh, SH3YL1 / RFU, ZEB2 / Fold change vs veh, ZEB2 / RFU, NRIP1 / Fold change vs veh, NRIP1 / RFU, PTTG1IP / Fold change vs veh, PTTG1IP / RFU, CAPN2 / Fold change vs veh, CAPN2 / RFU, MED14 / Fold change vs veh, MED14 / RFU, SNORA58 / Fold change vs veh, SNORA58 / RFU, C1orf63 / Fold change vs veh, C1orf63 / RFU, LRRFIP1 / Fold change vs veh, LRRFIP1 / RFU, NDUFAF7 / Fold change vs veh, NDUFAF7 / RFU, SLC12A2 / Fold change vs veh, SLC12A2 / RFU, IBTK / Fold change vs veh, IBTK / RFU, ESF1 / Fold change vs veh, ESF1 / Fold change vs veh, TMEM50B / RFU, TAOK1 / Fold change vs veh, TAOK1 / RFU, ACBD3 / Fold change vs veh, ACBD3 / RFU, TMA16 / Fold change vs veh, TMA16 / RFU, RWDD3 / Fold change vs veh, RWDD3 / RFU, BCAT1 / Fold change vs veh, BCAT1 / RFU, EDEM3 / Fold change vs veh, EDEM3 / RFU, TMEM33 / Fold change vs veh, TMEM33 / RFU, WDR75 / Fold change vs veh, WDR75 / RFU, AHCTF1 / Fold change vs veh, AHCTF1 / RFU, TFRC / Fold change vs veh, TFRC / RFU, ZDHHC17 / Fold change vs veh, ZDHHC17 / RFU, NOM1 / Fold change vs veh, NOM1 / RFU, ARL8B / Fold change vs veh, ARL8B / RFU, ZBTB11 / Fold change vs veh, ZBTB11 / RFU, TAMM41 / Fold change vs veh, TAMM41 / RFU, KIAA1704 /// LOC100996395 / Fold change vs veh, KIAA1704 /// LOC100996395 / RFU, ING1 / Fold change vs veh, ING1 / RFU, TRMT61B / Fold change vs veh, TRMT61B / RFU, FUBP3 / Fold change vs veh, FUBP3 / RFU, TP53 / Fold change vs veh, TP53 / RFU, TNKS2 / Fold change vs veh, TNKS2 / RFU, ZFP14 / Fold change vs veh, ZFP14 / RFU, ACTR2 / Fold change vs veh, ACTR2 / RFU, PPP3R1 / Fold change vs veh, PPP3R1 / RFU, PIK3R1 / Fold change vs veh, PIK3R1 / RFU, HNRNPA1 / Fold change vs veh, HNRNPA1 / RFU, RNF170 / Fold change vs veh, RNF170 / RFU, ZNF28 / Fold change vs veh, ZNF28 / RFU, RNGTT / Fold change vs veh, RNGTT / RFU, OGT / Fold change vs veh, OGT / RFU, BRD1 / Fold change vs veh, BRD1 / RFU, MARS / Fold change vs veh, MARS / RFU, ZNF655 / Fold change vs veh, ZNF655 / RFU, FAHD1 / Fold change vs veh, FAHD1 / RFU, BDP1 / Fold change vs veh, BDP1 / RFU, LRRCC1 / Fold change vs veh, LRRCC1 / RFU, ARID1A / Fold change vs veh, ARID1A / RFU, ZNF146 / Fold change vs veh, ZNF146 / RFU, ZNF330 / Fold change vs veh, ZNF330 / RFU, GPN3 / Fold change vs veh, GPN3 / RFU, C9orf123 / Fold change vs veh, C9orf123 / RFU, N4BP2L2 / Fold change vs veh, N4BP2L2 / RFU, ARFIP1 / Fold change vs veh, ARFIP1 / RFU, FAM179B / Fold change vs veh, FAM179B / RFU, BCL10 / Fold change vs veh, BCL10 / RFU, UHRF1BP1L / Fold change vs veh, UHRF1BP1L / RFU, BET1 / Fold change vs veh, BET1 / RFU, CNOT2 / Fold change vs veh, CNOT2 / RFU, ZNF268 / Fold change vs veh, ZNF268 / Fold change vs veh, ZNF507 / RFU, DGCR2 / Fold change vs veh, DGCR2 / RFU, WDSUB1 / Fold change vs veh, WDSUB1 / Fold change vs veh, HSP90B1 /// MIR3652 / RFU, ADSS / Fold change vs veh, ADSS / RFU, GK / Fold change vs veh, GK / RFU, ZNF148 / Fold change vs veh, ZNF148 / RFU, TAF9 / Fold change vs veh, TAF9 / RFU, SLC1A5 / Fold change vs veh, SLC1A5 / RFU, SLMO2 / Fold change vs veh, SLMO2 / RFU, ABCC4 / Fold change vs veh, ABCC4 / RFU, LOC101060439 /// RAP1B / Fold change vs veh, LOC101060439 /// RAP1B / RFU, RFX7 / Fold change vs veh, RFX7 / RFU, GTPBP10 / Fold change vs veh, GTPBP10 / RFU, CNEP1R1 / Fold change vs veh, CNEP1R1 / RFU, BIVM-ERCC5 /// ERCC5 / Fold change vs veh, BIVM-ERCC5 /// ERCC5 / RFU, ILF3 / Fold change vs veh, ILF3 / RFU 11762660_at / Fold change /veh 11762660_at / RFU VCAN (11757783_s_at) / Fold change /veh VCAN (11757783_s_at) / RFU DDX43 (11728927_at) / Fold change /veh DDX43 (11728927_at) / RFU KRT8 (11758188_x_at) / Fold change /veh KRT8 (11758188_x_at) / RFU NKD1 (11759106_at) / Fold change /veh NKD1 (11759106_at) / RFU SRD5A1 (11742802_a_at) / Fold change /veh SRD5A1 (11742802_a_at) / RFU TPSAB1 /// TPSB2 (11721975_s_at) / Fold change /veh TPSAB1 /// TPSB2 (11721975_s_at) / RFU GSTM3 (11746129_a_at) / Fold change /veh GSTM3 (11746129_a_at) / RFU IL23R (11737362_x_at) / Fold change /veh IL23R (11737362_x_at) / RFU TMEM51 (11727254_a_at) / Fold change /veh TMEM51 (11727254_a_at) / RFU PIWIL2 (11732686_x_at) / Fold change /veh PIWIL2 (11732686_x_at) / RFU ORM1 (11744905_x_at) / Fold change /veh ORM1 (11744905_x_at) / RFU CCDC152 (11743942_at) / Fold change /veh CCDC152 (11743942_at) / RFU ECM1 (11717891_a_at) / Fold change /veh ECM1 (11717891_a_at) / RFU IL23R (11748794_a_at) / Fold change /veh IL23R (11748794_a_at) / RFU TNFAIP8L3 (11732012_x_at) / Fold change /veh TNFAIP8L3 (11732012_x_at) / RFU MBOAT4 (11741988_at) / Fold change /veh MBOAT4 (11741988_at) / RFU 11764193_at / Fold change /veh 11764193_at / RFU TMEM53 (11763286_at) / Fold change /veh TMEM53 (11763286_at) / RFU MAGEB2 (11727129_at) / Fold change /veh MAGEB2 (11727129_at) / RFU TMEM200A (11744735_a_at) / Fold change /veh TMEM200A (11744735_a_at) / RFU CCDC152 (11751479_a_at) / Fold change /veh CCDC152 (11751479_a_at) / RFU FAM211A (11726209_a_at) / Fold change /veh FAM211A (11726209_a_at) / RFU RGS16 (11746705_a_at) / Fold change /veh RGS16 (11746705_a_at) / RFU VCAN (11755009_s_at) / Fold change /veh VCAN (11755009_s_at) / RFU RHOB (11743442_s_at) / Fold change /veh RHOB (11743442_s_at) / RFU RGS16 (11720943_a_at) / Fold change /veh RGS16 (11720943_a_at) / RFU RGS16 (11720944_at) / Fold change /veh RGS16 (11720944_at) / RFU, VPS4B / Fold change vs veh, VPS4B / RFU, CREB1 / Fold change vs veh, CREB1 / RFU, DNAJC13 / Fold change vs veh, DNAJC13 / RFU, GNAQ / Fold change vs veh, GNAQ / RFU, CDK5R1 / Fold change vs veh, CDK5R1 / RFU, ZRANB3 / Fold change vs veh, ZRANB3 / RFU, CUL4A / Fold change vs veh, CUL4A / RFU, CCNY / Fold change vs veh, CCNY / RFU, UFL1 / Fold change vs veh, UFL1 / RFU, COG3 / Fold change vs veh, COG3 / RFU, DIAPH2 / Fold change vs veh, DIAPH2 / RFU, SKA2 / Fold change vs veh, SKA2 / RFU, AFF3 / Fold change vs veh, AFF3 / RFU, LMF1 / Fold change vs veh, LMF1 / RFU, IPO11 / Fold change vs veh, IPO11 / RFU, DFFB / Fold change vs veh, DFFB / RFU, FOXP1 / Fold change vs veh, FOXP1 / RFU, CARD8 / Fold change vs veh, CARD8 / RFU, STRN3 / Fold change vs veh, STRN3 / RFU, ADK / Fold change vs veh, ADK / RFU, RASSF2 / Fold change vs veh, RASSF2 / RFU, WIPF1 / Fold change vs veh, WIPF1 / RFU, LARP1B / Fold change vs veh, LARP1B / RFU, RASA1 / Fold change vs veh, RASA1 / RFU, RB1 / Fold change vs veh, RB1 / RFU, PPFIA1 / Fold change vs veh, PPFIA1 / RFU, MAT2A / Fold change vs veh, MAT2A / RFU, CCT5 / Fold change vs veh, CCT5 / RFU, WDR92 / Fold change vs veh, WDR92 / RFU, CUX1 / Fold change vs veh, CUX1 / RFU, TTC7A / Fold change vs veh, TTC7A / RFU, TMEM135 / Fold change vs veh, TMEM135 / RFU, DEPTOR / Fold change vs veh, DEPTOR / RFU, CPM / Fold change vs veh, CPM / RFU, DNAJB6 / Fold change vs veh, DNAJB6 / RFU, CACNA2D3 / Fold change vs veh, CACNA2D3 / RFU, DTX4 / Fold change vs veh, DTX4 / RFU, TFCP2 / Fold change vs veh, TFCP2 / RFU, GMCL1 /// GMCL1P1 / Fold change vs veh, GMCL1 /// GMCL1P1 / RFU, AEBP2 / Fold change vs veh, AEBP2 / RFU, SNHG1 /// SNORD22 /// SNORD25 /// SNORD26 /// SNORD27 /// SNORD28 /// SNORD29 /// SNORD31 / Fold change vs veh, SNHG1 /// SNORD22 /// SNORD25 /// SNORD26 /// SNORD27 /// SNORD28 /// SNORD29 /// SNORD31 / Fold change (Aza/veh), C12orf56 (ProbeSet 11735607_a_at) / Fold change (ACY-1035/veh), C12orf56 (ProbeSet 11735607_a_at) / Fold change (Aza/veh), FGFR1OP (ProbeSet 11751329_s_at) / Fold change (ACY-1035/veh), FGFR1OP (ProbeSet 11751329_s_at) / Fold change (Aza/veh), VPS36 (ProbeSet 11739960_a_at) / Fold change (ACY-1035/veh), VPS36 (ProbeSet 11739960_a_at) / RFU SYPL1 (11715823_x_at) / Fold change /veh SYPL1 (11715823_x_at) / RFU IGFBP7 (11715501_s_at) / Fold change /veh IGFBP7 (11715501_s_at) / RFU REEP3 (11722064_at) / Fold change /veh REEP3 (11722064_at) / RFU IGLL1 (11728026_x_at) / Fold change /veh IGLL1 (11728026_x_at): dose or concentration left out as unconfirmed
Conditions: ProbeSet 11732154_at; LIST B

Nc1ccc(-c2cccs2)cc1NC(=O)c1ccc2c(c1)cc(C1CC1)n2CCN1CCOCC1 [ACY-1035]
RFU, OGT: 340.88 RFU
